From PubChem BioAssay AID1259407 (Chemical Carcinogenesis Research Information System (CCRIS), 2018)
Active and inactive are the calls of the source. No rule for the calls is given here.

Tested on: CCRIS mutagenicity, Ames/micronucleus/aberration tests
Experiment: CCRIS mutagenicity studies
[1] = Test System: AMES SALMONELLA TYPHIMURIUM, Strain/Indicator: TA98, Metabolic Activation: NONE, Method: PREINCUBATION
[2] = Test System: AMES SALMONELLA TYPHIMURIUM, Strain/Indicator: TA100, Metabolic Activation: NONE, Method: PREINCUBATION
[3] = Test System: AMES SALMONELLA TYPHIMURIUM, Strain/Indicator: TA1535, Metabolic Activation: NONE, Method: PREINCUBATION
[4] = Test System: AMES SALMONELLA TYPHIMURIUM, Strain/Indicator: TA1537, Metabolic Activation: NONE, Method: PREINCUBATION
[5] = Test System: AMES SALMONELLA TYPHIMURIUM, Strain/Indicator: TA98, Metabolic Activation: HAMSTER, LIVER, S-9, AROCLOR 1254 (10%), Method: PREINCUBATION
[6] = Test System: AMES SALMONELLA TYPHIMURIUM, Strain/Indicator: TA98, Metabolic Activation: RAT, LIVER, S-9, AROCLOR 1254 (10%), Method: PREINCUBATION
[7] = Test System: AMES SALMONELLA TYPHIMURIUM, Strain/Indicator: TA100, Metabolic Activation: HAMSTER, LIVER, S-9, AROCLOR 1254 (10%), Method: PREINCUBATION
[8] = Test System: AMES SALMONELLA TYPHIMURIUM, Strain/Indicator: TA100, Metabolic Activation: RAT, LIVER, S-9, AROCLOR 1254 (10%), Method: PREINCUBATION
[9] = Test System: AMES SALMONELLA TYPHIMURIUM, Strain/Indicator: TA1535, Metabolic Activation: HAMSTER, LIVER, S-9, AROCLOR 1254 (10%), Method: PREINCUBATION
[10] = Test System: AMES SALMONELLA TYPHIMURIUM, Strain/Indicator: TA1535, Metabolic Activation: RAT, LIVER, S-9, AROCLOR 1254 (10%), Method: PREINCUBATION
[11] = Test System: AMES SALMONELLA TYPHIMURIUM, Strain/Indicator: TA1537, Metabolic Activation: HAMSTER, LIVER, S-9, AROCLOR 1254 (10%), Method: PREINCUBATION
[12] = Test System: AMES SALMONELLA TYPHIMURIUM, Strain/Indicator: TA1537, Metabolic Activation: RAT, LIVER, S-9, AROCLOR 1254 (10%), Method: PREINCUBATION
[13] = Test System: AMES SALMONELLA TYPHIMURIUM, Strain/Indicator: TA100, Metabolic Activation: NONE, Method: STANDARD PLATE

## CN(C)C(=O)Nc1ccc(Cl)cc1
End Point: IN VITRO CHROMOSOMAL ABERRATIONS, Test System: CHINESE HAMSTER OVARY CELLS, Metabolic Activation: NONE
  mutagenic call: inactive; negative; precipitation occurred at all doses
End Point: IN VITRO CHROMOSOMAL ABERRATIONS, Test System: CHINESE HAMSTER OVARY CELLS, Metabolic Activation: RAT, LIVER, S-9, AROCLOR 1254
  mutagenic call: active; positive; precipitation occurred at all doses
Test System: AMES SALMONELLA TYPHIMURIUM, Strain/Indicator: TA98, Metabolic Activation: HAMSTER, LIVER, S-9, AROCLOR 1254, Method: PREINCUBATION
  mutagenic call: inactive; negative
[1]
  mutagenic call: inactive; negative
Test System: AMES SALMONELLA TYPHIMURIUM, Strain/Indicator: TA98, Metabolic Activation: RAT, LIVER, S-9, AROCLOR 1254, Method: PREINCUBATION
  mutagenic call: inactive; negative
Test System: AMES SALMONELLA TYPHIMURIUM, Strain/Indicator: TA100, Metabolic Activation: HAMSTER, LIVER, S-9, AROCLOR 1254, Method: PREINCUBATION
  mutagenic call: inactive; negative
[2]
  mutagenic call: inactive; negative
Test System: AMES SALMONELLA TYPHIMURIUM, Strain/Indicator: TA100, Metabolic Activation: RAT, LIVER, S-9, AROCLOR 1254, Method: PREINCUBATION
  mutagenic call: inactive; negative
Test System: AMES SALMONELLA TYPHIMURIUM, Strain/Indicator: TA1535, Metabolic Activation: HAMSTER, LIVER, S-9, AROCLOR 1254, Method: PREINCUBATION
  mutagenic call: inactive; negative
[3]
  mutagenic call: inactive; negative
Test System: AMES SALMONELLA TYPHIMURIUM, Strain/Indicator: TA1535, Metabolic Activation: RAT, LIVER, S-9, AROCLOR 1254, Method: PREINCUBATION
  mutagenic call: inactive; negative
Test System: AMES SALMONELLA TYPHIMURIUM, Strain/Indicator: TA1537, Metabolic Activation: HAMSTER, LIVER, S-9, AROCLOR 1254, Method: PREINCUBATION
  mutagenic call: inactive; negative
[4]
  mutagenic call: inactive; negative
Test System: AMES SALMONELLA TYPHIMURIUM, Strain/Indicator: TA1537, Metabolic Activation: RAT, LIVER, S-9, AROCLOR 1254, Method: PREINCUBATION
  mutagenic call: inactive; negative

## Oc1cc(Cl)c(Cl)c(Cl)c1O
Test System: CHINESE HAMSTER V-79, Strain/Indicator: V-79/6-THIOGUANINE, Metabolic Activation: NONE, Method: STANDARD PLATE
  mutagenic call: inactive; negative

## O=S(=O)(O)c1ccc(O)c2ncccc12
[1]
  mutagenic call: inactive; negative
Test System: AMES SALMONELLA TYPHIMURIUM, Strain/Indicator: TA98, Metabolic Activation: RAT, LIVER, S-9, Method: PREINCUBATION
  mutagenic call: active; positive
[2]
  mutagenic call: inactive; negative
Test System: AMES SALMONELLA TYPHIMURIUM, Strain/Indicator: TA100, Metabolic Activation: RAT, LIVER, S-9, Method: PREINCUBATION
  mutagenic call: active; positive

## CC(C)(C)c1ccc(C(=O)O)cc1
Test System: Ames Salmonella typhimurium, Strain/Indicator: TA98, Metabolic Activation: None, Method: Preincubation
  mutagenic call: inactive; negative
Test System: Ames Salmonella typhimurium, Strain/Indicator: TA98, Metabolic Activation: Rat, Liver, S9, Sodium phenobarbital and 5,6-benzoflavone (10%), Method: Preincubation
  mutagenic call: inactive; negative
Test System: Ames Salmonella typhimurium, Strain/Indicator: TA100, Metabolic Activation: None, Method: Preincubation
  mutagenic call: inactive; negative
Test System: Ames Salmonella typhimurium, Strain/Indicator: TA100, Metabolic Activation: Rat, Liver, S9, Sodium phenobarbital and 5,6-benzoflavone (10%), Method: Preincubation
  mutagenic call: inactive; negative
Test System: Ames Salmonella typhimurium, Strain/Indicator: TA1535, Metabolic Activation: None, Method: Preincubation
  mutagenic call: inactive; negative
Test System: Ames Salmonella typhimurium, Strain/Indicator: TA1535, Metabolic Activation: Rat, Liver, S9, Sodium phenobarbital and 5,6-benzoflavone (10%), Method: Preincubation
  mutagenic call: inactive; negative
Test System: Ames Salmonella typhimurium, Strain/Indicator: TA1537, Metabolic Activation: None, Method: Preincubation
  mutagenic call: inactive; negative
Test System: Ames Salmonella typhimurium, Strain/Indicator: TA1537, Metabolic Activation: Rat, Liver, S9, Sodium phenobarbital and 5,6-benzoflavone (10%), Method: Preincubation
  mutagenic call: inactive; negative
Test System: E. coli, Strain/Indicator: WP2uvrA/pKM101, Metabolic Activation: None, Method: Preincubation
  mutagenic call: inactive; negative
Test System: E. coli, Strain/Indicator: WP2uvrA/pKM101, Metabolic Activation: Rat, Liver, S9, Sodium phenobarbital and 5,6-benzoflavone (10%), Method: Preincubation
  mutagenic call: inactive; negative

## C=C(C)C(=O)OCCCCCCCCCC
[5]
  mutagenic call: inactive; negative
[1]
  mutagenic call: inactive; negative
[6]
  mutagenic call: inactive; negative
[7]
  mutagenic call: inactive; negative
[2]
  mutagenic call: inactive; negative
[8]
  mutagenic call: inactive; negative
[9]
  mutagenic call: inactive; negative
[3]
  mutagenic call: inactive; negative
[10]
  mutagenic call: inactive; negative
[11]
  mutagenic call: inactive; negative
[4]
  mutagenic call: inactive; negative
[12]
  mutagenic call: inactive; negative

## CNC(=O)N(O)C(C)=O
Test System: AMES SALMONELLA TYPHIMURIUM, Strain/Indicator: TA98, Metabolic Activation: NONE, Method: STANDARD PLATE
  mutagenic call: active; positive
Test System: AMES SALMONELLA TYPHIMURIUM, Strain/Indicator: TA98, Metabolic Activation: RAT, LIVER, S-9, Method: STANDARD PLATE
  mutagenic call: active; positive
[13]
  mutagenic call: active; positive

## C=C(C#N)C(=O)OC
[5]
  mutagenic call: inactive; negative
[1]
  mutagenic call: inactive; negative
[6]
  mutagenic call: inactive; negative
[7]
  mutagenic call: active; positive
[2]
  mutagenic call: active; positive
Test System: AMES SALMONELLA TYPHIMURIUM, Strain/Indicator: TA100, Metabolic Activation: NONE, Method: SPOT TEST
  mutagenic call: active; positive
[13]
  mutagenic call: active; positive
[8]
  mutagenic call: active; positive
Test System: AMES SALMONELLA TYPHIMURIUM, Strain/Indicator: TA100, Metabolic Activation: RAT, LIVER, S-9, AROCLOR 1254, Method: SPOT TEST
  mutagenic call: active; positive
Test System: AMES SALMONELLA TYPHIMURIUM, Strain/Indicator: TA100, Metabolic Activation: RAT, LIVER, S-9, AROCLOR 1254, Method: STANDARD PLATE
  mutagenic call: active; positive
[9]
  mutagenic call: inactive; negative
[3]
  mutagenic call: inactive; negative
[10]
  mutagenic call: inactive; negative
[11]
  mutagenic call: inactive; negative
[4]
  mutagenic call: inactive; negative
[12]
  mutagenic call: inactive; negative
